Experimental data from ChEMBL document CHEMBL1131105, “Anthracene-9,10-diones as potential anticancer agents: bacterial mutation studies of amido-substituted derivatives reveal an unexpected lack of mutagenicity” (1998).

How the values were obtained:
Assay type in all cases: functional, Salmonella enterica subsp. enterica serovar Typhimurium
Salmonella typhimurium [1] = experiment: Bacterial mutagenicity was measured against Salmonella Typhimurium TA1538 at dose range of 0-200 ug/plate
Salmonella typhimurium [2] = experiment: Bacterial mutagenicity was measured against Salmonella Typhimurium TA97a at dose range of 0-400 ug/plate
Salmonella typhimurium [3] = experiment: Bacterial mutagenicity was measured against Salmonella Typhimurium TA98 at dose range of 0-20 ug/plate
Salmonella typhimurium [4] = experiment: Bacterial mutagenicity was measured against Salmonella Typhimurium TA1538 at dose range of 0-5 ug/plate
Salmonella typhimurium [5] = experiment: Bacterial mutagenicity was measured against Salmonella Typhimurium TA98 at dose range of 0-10 ug/plate

SMILES | Slope (Salmonella typhimurium [1]) | Slope (Salmonella typhimurium [2]) | Slope (Salmonella typhimurium [3]) | Slope (Salmonella typhimurium [4]) | Slope (Salmonella typhimurium [5])
C(=N\NC1=NCCN1)/c1c2ccccc2c(/C=N/NC2=NCCN2)c2ccccc12 [BISANTRENE] | 0.2 mutants ug-1 | 1.83 mutants ug-1 | 0.33 mutants ug-1 | – | –
O=C1c2c(O)ccc(O)c2C(=O)c2c(NCCNCCO)ccc(NCCNCCO)c21 [MITOXANTRONE] | – | 0.01 mutants ug-1 | – | 3.52 mutants ug-1 | 3.04 mutants ug-1
